Data published in patent US7838275B2, “Anti-HIV and anti-tumor peptides and fragments of lysozyme” (priority 2000, dated 2010).
Like-named read-outs stand apart in the source and are kept apart here. Peptide text beside a SMILES is read from it.

Tests used:
[1] = test system: HIV-1
Method: Human lysozyme (2 mg) was treated with clostripain (10 units, Sigma) in 400 μl of Tris buffer, pH7.6 at 37° C. for 24 h. The digest was resolved by reversed phase chromatography on a ProRPC column (Hr5/10). […] The fractions were assayed for anti-HIV activity by p24 production in HIV-1 infected ACH2 T lymphocytes as described in Lee-Huang et al. (1999).

[2] = test system: HHV8 infected cells of AIDS patients with Kaposi's sarcoma

Compound	EC50 ([1]; 24 h) [nM]	Anti-HIV activity (EC50) [1]	other results
CC(C)[C@H](NC(=O)[C@H](Cc1c[nH]c2ccccc12)NC(=O)[C@H](C)NC(=O)[C@@H](N)CC(N)=O)C(=O)N[C@@H](C)C(=O)N[C@@H](Cc1c[nH]c2ccccc12)C(=O)N[C@@H](CCCNC(=N)N)C(=O)N[C@@H](CC(N)=O)C(=O)N[C@@H](CCCNC(=N)N)C(=O)O [HL9 (R107→N), NAWVAWRNR] (H-NAWVAWRNR-OH)	> 100000	–	–
CC(C)[C@H](NC(=O)[C@H](Cc1c[nH]c2ccccc12)NC(=O)[C@H](C)NC(=O)[C@@H](N)CCCNC(=N)N)C(=O)N[C@@H](C)C(=O)N[C@@H](Cc1c[nH]c2ccccc12)C(=O)N[C@@H](CCCCN)C(=O)N[C@@H](CC(N)=O)C(=O)N[C@@H](CCCNC(=N)N)C(=O)O [HL9 (R113→K), RAWVAWKNR] (H-RAWVAWKNR-OH)	> 100000	–	–
CC(C)[C@H](NC(=O)[C@H](Cc1c[nH]c2ccccc12)NC(=O)[C@H](C)NC(=O)[C@@H](N)CCCNC(=N)N)C(=O)N[C@@H](C)C(=O)N[C@@H](Cc1c[nH]c2ccccc12)C(=O)N[C@@H](CCCNC(=N)N)C(=O)N[C@@H](CC(N)=O)C(=O)N[C@@H](CCCCN)C(=O)O [HL9 (R115→K), RAWVAWRNK] (H-RAWVAWRNK-OH)	> 100000	–	–
CC(C)[C@H](NC(=O)[C@H](Cc1c[nH]c2ccccc12)NC(=O)[C@H](C)NC(=O)[C@@H](N)CCCNC(=N)N)C(=O)N[C@@H](C)C(=O)N[C@@H](Cc1c[nH]c2ccccc12)C(=O)N[C@@H](CCCNC(=N)N)C(=O)N[C@@H](CC(N)=O)C(=O)N[C@@H](CCCNC(=N)N)C(=O)O [HL9, RAWVAWRNR] (H-RAWVAWRNR-OH)	–	–	EC50 [2]: 48 nM
CC[C@H](C)[C@H](NC(=O)CNC(=O)[C@H](CCC(N)=O)NC(=O)[C@@H]1CCCN1C(=O)[C@H](CC(=O)O)NC(=O)[C@H](CCCNC(=N)N)NC(=O)[C@@H](NC(=O)[C@@H](NC(=O)[C@@H](N)CCCNC(=N)N)C(C)C)C(C)C)C(=O)N[C@@H](CCCNC(=N)N)C(=O)N[C@@H](C)C(=O)N[C@@H](Cc1c[nH]c2ccccc12)C(=O)N[C@H](C(=O)N[C@@H](C)C(=O)N[C@@H](Cc1c[nH]c2ccccc12)C(=O)N[C@@H](CCCNC(=N)N)C(=O)N[C@@H](CC(N)=O)C(=O)N[C@@H](CCCNC(=N)N)C(=O)O)C(C)C [HL18, RVVRDPQGIRAWVAWRNR] (H-RVVRDPQGIRAWVAWRNR-OH; N-terminus and C-terminus assumed)	58	–	EC50 [2]: 56 nM
Lysozyme: Human lysozyme, whole molecule	–	–	EC50 ([2]; read-out: Anti-KS EC50, Table 4): 54 nM; EC50 ([1]; read-out: Anti-HIV EC50): 50 nM; EC50 ([1]; read-out: Anti-HIV activity (EC50)): 50 nM; EC50 ([1]; read-out: anti-HIV EC50 (50% inhibition concentration)): 55 nM
RAWVAYRNR [HL9 (W112→Y)]	–	No Anti-HIV	–
RAYVAWRNR [HL9 (W109→Y)]	–	No Anti-HIV	–
RVVRDPQGI [HL18-N9]	–	No Anti-HIV	anti-HIV activity [1]: no anti-HIV activity
RVVRDPQGIRAWVAYRNR [HL18 (W112-Y)]	–	No Anti-HIV	–
RVVRDPQGIRAYVAWRNR [HL18 (W109-Y)]	–	No Anti-HIV	–
